Entries after “also recorded” stand apart in the source; their conditions may differ.
How the values were obtained:
[1] = tested on: Wild type tomatoes (var. 'Ailsa Craig'); assay: Ripening (visual pigmentation) of wild type mature green tomato fruit; type: in vivo; details: for ripening response (pigmentation green to red) versus deionized water control: treated or injected with 1 mL of 2% solution, 7 days
[2] = tested on: Bartlett pears; assay: Ethylene and CO2 evolution of 1-MCP treated Bartlett pears in air-tight chambers (GC-FID, gas analyzer); type: in vivo, Pyrus communis
Procedure: Thereafter, each experimental group of fruit was placed in a separate air-tight chamber connected to a gas chromatography (GC) instrument configured to draw samples every 8 hours over the course of 5 days, to measure ethylene via a flame ionizing detector (FID), and to measure CO2 via a gas analyzer. The experiment was performed with 4 pears per chamber in 3 replicates per experimental group. Monitoring was performed to detect minor variation in air flow rates in all experimental chambers used and detected variations were accounted for in subsequent calculations.

[3] = tested on: whole pears; assay: Firmness of whole pears after 24 h immersion in glyoxylic acid solution (penetrometer); type: in vivo, pear; details: after 6 days
Procedure: In order to ripen whole pear fruit pretreated with 1-MCP, the fruits were treated by immersion in 0 mM, 0.1 mM, 0.25 mM, 0.5 mM glyoxylic acid. In other experiments, the fruits were treated by ambient fogging of fruit with 1 liter of solution of 1% (0.135 M), 2% (0.270 M) and 3% (0.405 M) glyoxylic acid solution (determined with 74 as the molecular weight of glyoxylic acid). The ambient fogging was carried out in a 192,000 cm^3 volume chamber using an ultrasonic humidifier. Various indicators of ripening were assayed thereafter. In a first assay, whole pears pre-treated with 1-MCP were immersed in 0 mM, 0.1 mM, 0.25 mM, or 0.5 mM glyoxylic acid solution for 24 hours. The fruit was assayed for firmness using a penetrometer six days after the immersion treatment. FIG. 7 graphically illustrates the reduction in firmness (i.e., development of softness) in pear fruit treated with various concentrations of glyoxylic acid. Non-1-MCP treated fruit (light bars) and 1-MCP treated fruit (dark bars) responded differently to glyoxylic acid treatment.

[4] = tested on: 1-MCP pre-treated fruit (whole pear); assay: Firmness and Brix of 1-MCP pre-treated whole pears after ambient fogging with glyoxylic acid; type: in vivo; details: 1% (0.135 M) ambient fogging
Procedure: In order to ripen whole pear fruit pretreated with 1-MCP, the fruits were treated by immersion in 0 mM, 0.1 mM, 0.25 mM, 0.5 mM glyoxylic acid. In other experiments, the fruits were treated by ambient fogging of fruit with 1 liter of solution of 1% (0.135 M), 2% (0.270 M) and 3% (0.405 M) glyoxylic acid solution (determined with 74 as the molecular weight of glyoxylic acid). The ambient fogging was carried out in a 192,000 cm^3 volume chamber using an ultrasonic humidifier. Various indicators of ripening were assayed thereafter.
Next, 1-MCP pre-treated fruit were treated with glyoxylic acid using ambient fogging at 0% or 1% (0.135 M) glyoxylic acid. In this experiment, the fruit firmness was measured at two time points—immediately after the fogging treatment and again 8 days later using a penetrometer. […] The fruit were also assessed for ripeness by assaying the Brix values, which are indicative of total soluble solids and also serve as an industry standard for fruit ripening. […] All these experiments have been repeated multiple times and have been consistent with the above data.

[5] = tested on: fruit slices of 1-MCP pre-treated pears; assay: Ethylene from slices of 1-MCP pre-treated pears immersed in glyoxylic acid, airtight jar; type: in vivo, pear; details: immersed 12-24 hours, measured after 8 hours
Procedure: The effect of glyoxylic acid on the restarting of ripening after 1-MCP-mediated arrest was also assayed with fruit that was sliced. Whole unripe pears were pre-treated with 1-MCP according to standard practice. The unripe pre-treated fruit were sliced and subject to glyoxylic acid treatments to assess its ability to induce ripening in the sliced fruit. First, fruit slices were immersed in 0.5 mM and 2.5 mM glyoxylic acid solution for 12-24 hours and placed in an airtight jar. Ethylene levels were measured after 8 hours. […] Slices immersed in the 2.5 mM glyoxylic also produced more (approximately 2-fold more) ethylene than the controls, although the increase in ethylene levels was not as high as for the 0.5 mM treatment.

[6] = tested on: sliced pear fruit; assay: Ethylene evolved from sliced 1-MCP fruit treated with glyoxylic acid in sealed modified atmosphere bag; type: in vivo
Procedure: Next, a modified protocol was followed to expose fruit slices derived from 1-MCP pre-treated fruit to solutions of glyoxylic acid. Glyoxylic acid solutions ranging from 0.005% (0.675 mM), 0.150% (20.25 mM), 0.5% ([…]), 1% (0.135 M), 2% (0.270 M), 2.5% (0.338 M) and 3% (0.405 M) were prepared either alone or in conjunction with the Nature seal solution, which contains antioxidants that prevent fruit oxidation. 1-MCP fruit was sliced and treated with the 0.005%, 0.150%, 0.5% or 2.5% glyoxylic acid solutions and placed in a modified, sealed atmosphere bag. The amount of evolved ethylene was measured directly from the sealed bag of fruit. […] Finally, the 1-MCP fruit that were sliced and treated with 1%, 2% and 3% glyoxylic acid were evaluated in consumer preference trials in 2014 and 2015.

[7] = tested on: whole pears with or without 1-MCP pre-treatment; assay: Internal ethylene of pears after ambient fogging with glyoxylic acid (gas extraction, GC/MS); type: in vivo, pear; details: both 1-MCP pre-treated and non-1-MCP pre-treated fruit
Procedure: As an additional confirmation of glyoxylic acid-mediated ripening of 1-MCP pre-treated pears, the internal ethylene of the fruit was also measured. First, the whole fruit with or without 1-MCP pre-treatment were treated with 0.5% ([…]) or 1% (0.135 M) glyoxylic acid using ambient fogging. Thereafter, one quarter of four separate pears from each treatment was sliced into four pieces and placed into a gas extraction chamber. A vacuum was created using an aspirator. For each experiment, 0.5 ml of extracted ethylene gas was injected into the GC/MS in three replicates. Measurements of ethylene in ppm were calculated using a previously established standard curve.

[8] = tested on: rin tomato fruit; assay: Ripening (visual pigmentation) of rin mutant tomato fruit; type: in vivo; details: for ripening response (change in pigmentation) of rin tomato fruit: 2% GLA, observed over 14 days; for pigment response in untreated rin fruit on the same branches as treated fruit: GLA injection to a single fruit
[9] = tested on: Haas avocado; assay: Avocado fruit flesh firmness after atomized GLA exposure (penetrometer); type: in vivo; details: for percentage of terminal ripened firmness achieved: 3% GLA 16 hours
Procedure: (§1) Fruits: Avocado and Mango fruits were purchased from Pullman Walmart and half were immediately placed in separate chambers for administration of glyoxylic acid, half were left on the bench top at 20° C.
(§2) GLA treatment: Humidification via sonication was accomplished by administering 1 liter of 3% (m/V) glyoxylic acid (GLA) solution in deionized water into the reservoir of a Crane humidifier model EE-5301. Atomized GLA solution was directed via surgical tubing from the humidifier into a custom acrylic chamber measuring approximately 40×60×60 cm containing 12 pears per treatment for 16 hours. Fruits were elevated from the chamber floor on metal baking racks to allow for exposure to GLA on all faces. One (1) 1 cm diameter port allowed for gas exchange between the atmosphere and chamber. A thick cloud of atomized GLA solution was visible in each chamber for the duration of each experimental exposure time. All experiments were conducted at 20° C.
Firmness measurements: Fruit firmness was measured via FTA penetrometer (GUSS Manufacturing, Norfolk, VA) at three equidistant locations around the middle of each fruit. Therefore, one biological replicate yielded three technical replicates. For each penetrometer measurement, approximately 2 cm^2 of fruit epidermal tissue was removed with a fruit peeler. Firmness measurements were taken at the locations on the fruit where epidermal tissue was removed. Firmness measurements were taken from three biological replicates per treatment at 1, 3, 5 and 7 days post treatment (DPT).
Firmness normalization: Firmness measurements were normalized to account for variability in starting fruit flesh firmness. At the start of each experiment, three untreated fruits were selected, and three fruit flesh measurements were taken from each and averaged. Firmness measurements from each exposure time treatment are reported as a percentage of the starting fruit flesh firmness average.

[10] = tested on: Mango; assay: Mango fruit flesh firmness after atomized GLA exposure (penetrometer); type: in vivo; details: 3% GLA, 16 hours, readings confounded by variable rinds
Procedure: as §1, §2
(§3) Firmness measurements: Fruit firmness was measured via FTA penetrometer (GUSS Manufacturing, Norfolk, VA) at three equidistant locations around the middle of each fruit. Therefore, one biological replicate yielded three technical replicates. For each penetrometer measurement, approximately 2 cm^2 of fruit epidermal tissue was removed with a fruit peeler. Firmness measurements were taken at the locations on the fruit where epidermal tissue was removed. […]

[11] = tested on: Non-MCP treated D'Anjou pears; assay: Flesh firmness of non-MCP treated D'Anjou pears after atomized GLA exposure (penetrometer); type: in vivo, pear; details: 3% GLA, various exposure times, 1, 3, 5, 7 days post exposure
Procedure: Pear fruit: Non-MCP treated D'Anjou pears picked on Oct. 4, 2019 were obtained from Blue Bird packing house (Blue Bird Inc., Wenatchee Washington) and stored at 1° C. until use.
as §2, with “GLA” for “(m/V) glyoxylic acid (GLA)”, “solution” for “solution in deionized water”, “treatment. Pears” for “treatment for 16 hours. Fruits”
as §3

## [Cl-].[Cl-].[Co+2] [CoCl2, reference compound]
[1]; in vivo
  visible ripening response: no visible ripening response

## S [RC-1, hydrogen sulfide]
[2]; 0.5 mM H2S
  evolution of ethylene: clear and steady increase in the evolution of ethylene
[2]; 0.5 mM H2S (RC-1), 5 days monitoring
  level of respiration (evolved CO2): positive trend
[2]; 0.5 mM H2S (RC-1), 5 days monitoring, listed as H2S
  level of respiration (evolved CO2): generally positive trend
[2]; 2.5 mM H2S
  level of ethylene versus control fruit: indistinguishable and very low
[2]; 2.5 mM H2S, perhaps a stress response
  level of respiration (evolved CO2): higher levels of carbon dioxide
[2]; RC-1, pear fruit blocked for ripening by 1-MCP
  time post-treatment at which ethylene evolution is observed: 48 h

## O=CC(=O)O [glyoxylic acid]
[2]; 0.25 mM RC-2, pear fruit blocked for ripening by 1-MCP
  time at which ethylene evolution is observed: ≤ 16 h
[2]; 0.25 mM glyoxylic acid (RC-2)
  evolution of ethylene: clear and steady increase in the evolution of ethylene
[2]; 1, 2.5 and 10 mM glyoxylic acid
  level of ethylene versus control fruit: indistinguishable and very low
[2]; as little as 0.25 mM
  maturation in pears after 1-MCP treatment: induces maturation
[3]; 0.5 mM immersion solution
  firmness effect in 1-MCP treated fruit: especially enhanced over control
[3]; 0.5 mM
  firmness of non-1-MCP treated fruit: reduction in firmness is evident
[3]; all concentrations (0.1, 0.25, 0.5 mM), 24 h immersion, compared to non-1-MCP treated fruit
  firmness of 1-MCP treated fruit: drop in firmness
[4]; 8 days
  fruit firmness: 2 lbf
[4]; 8 days post fogging
  Brix values (total soluble solids): significantly increased brix values
[5]; 0.5 mM
  ethylene generated relative to control slices: 5 fold
[5]; 2.5 mM
  ethylene generated relative to control slices: approximately 2 fold
[6]; 2.5% (337 mM) solution, sealed atmosphere bag
  evolution of ethylene from sliced fruit versus control: enhanced the evolution of ethylene; also recorded: significantly increased ethylene production
[6]; some of a range of concentrations (0.005%-2.5%)
  ethylene evolved versus control fruit: releases more ethylene than the control fruit
[7]; 0.5% (0.6.75 mM) ambient fogging
  internal ethylene evolution: effective in inducing the evolution of ethylene
[7]; 1% (0.135 M) ambient fogging
  internal ethylene evolution: effective in inducing the evolution of ethylene
[1]
  ripening response (pigmentation green to red) versus deionized water control: accelerated ripening
[1]; listed as GLA
  ripening response (pigmentation green to red) versus deionized water control: accelerated ripening response
[8]
  ripening response (change in pigmentation) of rin tomato fruit: change in pigmentation resembling that achieved at breaker stage in wild type tomatoes
  pigment response in untreated rin fruit on the same branches as treated fruit: systemic
[8]; listed as GLA
  ripening response (change in pigmentation) of rin tomato fruit: enables ripening of rin mutant fruit
  pigment response in untreated rin fruit on the same branches as treated fruit: Systemic pigmentation response
[9]; one day post treatment (control 31%)
  percentage of terminal ripened firmness achieved: 81%
[9]; three days post treatment (control 96%)
  percentage of terminal ripened firmness achieved: 92%
[9]; 3% GLA solution, atomized, 16 hours, listed as GLA
  ripening as measured by fruit flesh firmness versus non-GLA control: significant acceleration of ripening; also recorded: evidence for accelerated ripening
[10]
  ripening as measured by fruit flesh firmness: trend towards accelerated ripening
[11]
  ripening as measured by pear fruit flesh firmness: trend towards accelerated ripening

Source: patent US12653181B2, “Control of ripening and senescence in pre-harvest and post-harvest plants and plant materials by manipulating alternative oxidase activity” (Washington State University, priority 2012, dated 2026)
